Like-named read-outs stand apart in the source and are kept apart here.

IC50 data for 18 compounds are collected here from US20240050428A1 (Cullgen (Shanghai), Inc., priority 2020, published 2024).

For one assay, the system named is MV4;11 cells. Briefly: Cell viability assay (CellTiter-Glo) in MV4;11 cells, alone or with gilteritinib. It is filed as cell-based. Particulars: Homo sapiens, MV4-11, 72 h, read-out: MV4.
The test system of a further assay is MOLM-13 cells. Nature of the assay: Cell viability assay (CellTiter-Glo) in MOLM-13 cells, alone or with gilteritinib. The format is cell-based. To be noted: Homo sapiens, MOLM-13, 72 h.
Setting [1] is: MV4;11 cells, compound alone (without gilteritinib), three days, CellTiter-Glo, 11 IC50.
[2] abbreviates: MV4;11 cells, with gilteritinib 10 nM, three days, CellTiter-Glo, 11 IC50 gilteritinib.
The mark [3] stands for this setting: MOLM-13 cells, compound alone (without gilteritinib), three days, CellTiter-Glo, read-out: MOLM-13 IC50.
Where [4] appears, read: MOLM-13 cells, with gilteritinib 20 nM, three days, CellTiter-Glo, read-out: MOLM-13 IC50 gilteritinib.
[5] abbreviates: MV4;11 cells, without gilteritinib, 3 days, CellTiter-Glo, 11 IC50.
[6] abbreviates: MOLM-13 cells, with 20 nM gilteritinib, 3 days, CellTiter-Glo, read-out: MOLM-13 IC50 gilteritinib.
Setting [7] is: MOLM-13 cells, without gilteritinib, 3 days, CellTiter-Glo, read-out: MOLM-13 IC50.
Setting [8] is: MV4;11 cells, with 10 nM gilteritinib, 3 days, CellTiter-Glo, 11 IC50 gilteritinib.

As for `CN1CCN(c2cnn(C3CCN(C(=O)CCCCCNc4ccc5c(c4)C(=O)N(C4CCC(=O)NC4=O)C5=O)CC3)c2)CC1` (stereo not drawn) [GS-046, 2-(2,6-Dioxopiperidin-3-yl)-5-((6-(4-(4-(4-methylpiperazin-1-yl)-1H-pyrazol-1-yl)piperidin-1-yl)-6-oxohexyl)amino)isoindoline-1,3-dione], the IC50 with MV4;11 cells (setting [1]) was above 1000 nM; in the assay with MV4;11 cells (setting [2]), 10 to 100 nM; in the assay on MOLM-13 cells (setting [3]), 100 to 1000 nM; in the assay with MOLM-13 cells (setting [4]), 10 to 100 nM.
Consider `O=C1CCC(N2C(=O)c3ccc(NCCCCCC(=O)N4CCC(n5cc(N6CCOCC6)cn5)CC4)cc3C2=O)C(=O)N1` (stereo not drawn) [GS-047, 2-(2,6-Dioxopiperidin-3-yl)-5-((6-(4-(4-morpholino-1H-pyrazol-1-yl)piperidin-1-yl)-6-oxohexyl)amino)isoindoline-1,3-dione], for which the IC50 in the assay with MV4;11 cells (setting [1]) fell in the range of 100 to 1000 nM; with MV4;11 cells (setting [2]) it was 10 to 100 nM; in the assay on MOLM-13 cells (setting [3]), 100 to 1000 nM; with MOLM-13 cells (setting [4]), 10 to 100 nM.
Turning to `O=C1CCC(N2C(=O)c3ccc(NCCCCCC(=O)N4CCC(n5cc(N6CCCCC6)cn5)CC4)cc3C2=O)C(=O)N1` (stereo not drawn) [GS-048, 2-(2,6-Dioxopiperidin-3-yl)-5-((6-oxo-6-(4-(4-(piperidin-1-yl)-1H-pyrazol-1-yl)piperidin-1-yl)hexyl)amino)isoindoline-1,3-dione], the IC50 in the assay with MV4;11 cells (setting [1]) was 10 to 100 nM; in the assay on MV4;11 cells (setting [2]) it was below 10 nM; in the assay on MOLM-13 cells (setting [3]), 100 to 1000 nM; with MOLM-13 cells (setting [4]) it was 10 to 100 nM.
As for `O=C1CCC(N2C(=O)c3ccc(NCCCCCC(=O)N4CCC(n5cc(C6CCCCC6)cn5)CC4)cc3C2=O)C(=O)N1` (stereo not drawn) [GS-049, 5-((6-(4-(4-Cyclohexyl-1H-pyrazol-1-yl)piperidin-1-yl)-6-oxohexyl)amino)-2-(2,6-dioxopiperidin-3-yl)isoindoline-1,3-dione], the IC50 in the assay with MV4;11 cells (setting [1]) is 10 to 100 nM; with MV4;11 cells (setting [2]), 10 to 100 nM; in the assay with MOLM-13 cells (setting [3]), 10 to 100 nM; in the assay on MOLM-13 cells (setting [4]) it was below 10 nM.
Consider `O=C1CCC(N2C(=O)c3ccc(NCCCCCC(=O)N4CCC(n5cc(-c6ccccc6)cn5)CC4)cc3C2=O)C(=O)N1` (stereo not drawn) [GS-050, 2-(2,6-Dioxopiperidin-3-yl)-5-((6-oxo-6-(4-(4-phenyl-1H-pyrazol-1-yl)piperidin-1-yl)hexyl)amino)isoindoline-1,3-dione], for which the IC50 was below 10 nM in the assay on MV4;11 cells (11 IC50), below 10 nM in the assay with MV4;11 cells (11 IC50 gilteritinib), 10 to 100 nM in the assay with MOLM-13 cells (read-out: MOLM-13 IC50) and below 10 nM with MOLM-13 cells (read-out: MOLM-13 IC50 gilteritinib).
In the case of `O=C1CCC(N2C(=O)c3ccc(NCCCCCC(=O)N4CCC(n5cc(-c6ncccn6)cn5)CC4)cc3C2=O)C(=O)N1` (stereo not drawn) [GS-051, 2-(2,6-Dioxopiperidin-3-yl)-5-((6-oxo-6-(4-(4-(pyrimidin-2-yl)-1H-pyrazol-1-yl)piperidin-1-yl)hexyl)amino)isoindoline-1,3-dione], the IC50 in the assay on MV4;11 cells (setting [1]) was 10 to 100 nM; in the assay with MV4;11 cells (setting [2]), below 10 nM; in the assay with MOLM-13 cells (setting [3]), 100 to 1000 nM; with MOLM-13 cells (setting [4]), 10 to 100 nM.
Turning to `O=C1CCC(N2C(=O)c3ccc(NCCCCCC(=O)N4CCC(n5cc(-c6ccc7cccc(Br)c7n6)cn5)CC4)cc3C2=O)C(=O)N1` (stereo not drawn) [GS-052, 5-((6-(4-(4-(8-Bromoquinolin-2-yl)-1H-pyrazol-1-yl)piperidin-1-yl)-6-oxohexyl)amino)-2-(2,6-dioxopiperidin-3-yl)isoindoline-1,3-dione], the IC50 in the assay with MV4;11 cells (setting [1]) was 100 to 1000 nM; with MV4;11 cells (setting [2]), below 10 nM; in the assay with MOLM-13 cells (setting [3]), above 1000 nM; in the assay with MOLM-13 cells (setting [4]), below 10 nM.
For the compound `O=C1CCC(N2C(=O)c3ccc(NCCCCCC(=O)N4CCC(n5cc(-c6ccccn6)cn5)CC4)cc3C2=O)C(=O)N1` (stereo not drawn) [GS-053, 2-(2,6-Dioxopiperidin-3-yl)-5-((6-oxo-6-(4-(4-(pyridin-2-yl)-1H-pyrazol-1-yl)piperidin-1-yl)hexyl)amino)isoindoline-1,3-dione], the IC50 in the assay with MV4;11 cells (setting [1]) is 10 to 100 nM; with MV4;11 cells (setting [2]), below 10 nM; in the assay with MOLM-13 cells (setting [3]), 100 to 1000 nM; in the assay with MOLM-13 cells (setting [4]), below 10 nM.
On to `O=C(CCC(F)(F)C(=O)N1CCC(n2cc(-c3cnc4cccc(Br)c4n3)cn2)CC1)NCc1ccc2c(c1)CN(C1CCC(=O)NC1=O)C2=O` (stereo not drawn) [GS-054, 5-(4-(4-(8-Bromoquinoxalin-2-yl)-1H-pyrazol-1-yl)piperidin-1-yl)-N-((2-(2,6-dioxopiperidin-3-yl)-1-oxoisoindolin-5-yl)methyl)-4,4-difluoro-5-oxopentanamide], for which the IC50 with MV4;11 cells (setting [1]) is below 10 nM; with MV4;11 cells (setting [2]), below 10 nM; in the assay on MOLM-13 cells (setting [3]), 10 to 100 nM; with MOLM-13 cells (setting [4]) it was below 10 nM.
On to `CN(Cc1ccc2c(c1)CN(C1CCC(=O)NC1=O)C2=O)C(=O)CCCC(=O)N1CCC(n2cc(-c3cnc4cccc(Br)c4n3)cn2)CC1` (stereo not drawn) [GS-058, 5-(4-(4-(8-Bromoquinoxalin-2-yl)-1H-pyrazol-1-yl)piperidin-1-yl)-N-((2-(2,6-dioxopiperidin-3-yl)-1-oxoisoindolin-5-yl)methyl)-N-methyl-5-oxopentanamide], for which the IC50 with MV4;11 cells (setting [1]) is above 1000 nM; in the assay on MV4;11 cells (setting [2]) it was 100 to 1000 nM; in the assay with MOLM-13 cells (setting [3]), 100 to 1000 nM; with MOLM-13 cells (setting [4]) it was above 1000 nM.
Regarding `O=C1CCC(N2C(=O)c3ccc(NCCCCCC(=O)N4CCC(c5cnc6cccc(Br)c6n5)CC4)cc3C2=O)C(=O)N1` (stereo not drawn) [GS-060, 5-((6-(4-(8-Bromoquinoxalin-2-yl)piperidin-1-yl)-6-oxohexyl)amino)-2-(2,6-dioxopiperidin-3-yl)isoindoline-1,3-dione], the IC50 in the assay with MV4;11 cells (setting [1]) was below 10 nM; in the assay with MV4;11 cells (setting [2]) it was below 10 nM; in the assay with MV4;11 cells (setting [5]) it was below 1 nM; in the assay with MOLM-13 cells (setting [3]) it was below 10 nM; with MOLM-13 cells (setting [6]) it was 0.06 nM; in the assay on MOLM-13 cells (setting [4]), below 10 nM. Also, the IC50 in the assay with MOLM-13 cells (setting [7]) turned out to be 3.7 nM.
`O=C1CCC(N2C(=O)c3ccc(NCCCCCC(=O)c4ccc(-n5cccn5)cc4)cc3C2=O)C(=O)N1` (stereo not drawn) [GS-061, 5-((6-(4-(1H-Pyrazol-1-yl)phenyl)-6-oxohexyl)amino)-2-(2,6-dioxopiperidin-3-yl)isoindoline-1,3-dione]: the IC50 in the assay on MV4;11 cells (setting [1]) is above 1000 nM; in the assay with MV4;11 cells (setting [2]), 100 to 1000 nM; in the assay with MOLM-13 cells (setting [3]) it was above 1000 nM; in the assay with MOLM-13 cells (setting [4]), 100 to 1000 nM.
In the case of `O=C1CCC(N2C(=O)c3ccc(NCCCCCC(=O)N4CC(n5cc(-c6cnc7cccc(Br)c7n6)cn5)C4)cc3C2=O)C(=O)N1` (stereo not drawn) [GS-062, 5-((6-(3-(4-(8-Bromoquinoxalin-2-yl)-1H-pyrazol-1-yl)azetidin-1-yl)-6-oxohexyl)amino)-2-(2,6-dioxopiperidin-3-yl)isoindoline-1,3-dione], the IC50 with MV4;11 cells (setting [8]) is 1920 nM; in the assay on MV4;11 cells (setting [5]), 9410 nM; in the assay on MOLM-13 cells (setting [6]) it was 72 nM; in the assay with MOLM-13 cells (setting [7]), above 10000 nM.
Regarding `O=C1CCC(N2C(=O)c3ccc(NCCCCCC(=O)N4CCC(n5cc(N6CCC6)cn5)CC4)cc3C2=O)C(=O)N1` (stereo not drawn) [GS-063, 5-((6-(4-(4-(Azetidin-1-yl)-1H-pyrazol-1-yl)piperidin-1-yl)-6-oxohexyl)amino)-2-(2,6-dioxopiperidin-3-yl)isoindoline-1,3-dione], the IC50 is 8550 nM in the assay on MV4;11 cells (setting [8]), above 10000 nM with MV4;11 cells (setting [5]), 3680 nM in the assay with MOLM-13 cells (setting [6]) and above 10000 nM in the assay on MOLM-13 cells (setting [7]).
Turning to `O=C1CCC(N2C(=O)c3ccc(NCCCCCC(=O)N4CCC(n5cc(C6CC6)cn5)CC4)cc3C2=O)C(=O)N1` (stereo not drawn) [GS-064, 5-((6-(4-(4-Cyclopropyl-1H-pyrazol-1-yl)piperidin-1-yl)-6-oxohexyl)amino)-2-(2,6-dioxopiperidin-3-yl)isoindoline-1,3-dione], the IC50 turned out to be 27 nM with MV4;11 cells (setting [8]), 349 nM in the assay with MV4;11 cells (setting [5]), 600 nM with MOLM-13 cells (setting [6]) and 520 nM in the assay with MOLM-13 cells (setting [7]).
Take `Cc1cccc(-c2ccn([C@H]3C[C@H](CNc4ccc5c(c4)C(=O)N(C4CCC(=O)NC4=O)C5=O)C3)n2)n1` (stereo partly drawn) [GS-065, 2-(2,6-Dioxopiperidin-3-yl)-5-(((trans-3-(3-(6-methylpyridin-2-yl)-1H-pyrazol-1-yl)cyclobutyl)methyl)amino)isoindoline-1,3-dione]: the IC50 in the assay with MV4;11 cells (setting [1]), in the assay on MV4;11 cells (setting [2]), with MOLM-13 cells (setting [3]) and with MOLM-13 cells (setting [4]) was above 1000 nM each time.
For `O=C1CCC(N2C(=O)c3ccc(NC[C@H]4C[C@H](n5cc(-c6cnc7cc(N8CCOCC8)ccc7n6)c(C6CC6)n5)C4)cc3C2=O)C(=O)N1` (stereo partly drawn) [GS-066, 5-(((trans-3-(3-Cyclopropyl-4-(6-morpholinoquinoxalin-2-yl)-1H-pyrazol-1-yl)cyclobutyl)methyl)amino)-2-(2,6-dioxopiperidin-3-yl)isoindoline-1,3-dione], the IC50 was 10 to 100 nM in the assay on MV4;11 cells (setting [1]), below 10 nM with MV4;11 cells (setting [2]), 10 to 100 nM in the assay with MOLM-13 cells (setting [3]) and below 10 nM in the assay with MOLM-13 cells (setting [4]).
As for `O=C1CCC(N2C(=O)c3ccc(NC[C@H]4C[C@H](n5cc(-c6cnc7ccc(CN8CCOCC8)cc7n6)c(C6CC6)n5)C4)cc3C2=O)C(=O)N1` (stereo partly drawn) [GS-067, 5-(((trans-3-(3-Cyclopropyl-4-(7-(morpholinomethyl)quinoxalin-2-yl)-1H-pyrazol-1-yl)cyclobutyl)methyl)amino)-2-(2,6-dioxopiperidin-3-yl)isoindoline-1,3-dione], the IC50 with MV4;11 cells (setting [1]) is 10 to 100 nM; in the assay with MV4;11 cells (setting [2]), 10 to 100 nM; with MOLM-13 cells (setting [3]), above 1000 nM; in the assay on MOLM-13 cells (setting [4]) it was 10 to 100 nM.
